Assays:
[1] = Stabilization of fluorescein-labelled amyloidogenic full length immunoglobulin light chain dimer (unknown origin) assessed as concentration of stabilizer that affords 50% maximal proteinase K protection by protease coupled fluorescence polarization assay; parameters: species or system Homo sapiens
[2] = Stabilization of fluorescein-labelled amyloidogenic full length immunoglobulin light chain dimer T46L/F49Y mutant (unknown origin) assessed as concentration of stabilizer that affords 50% maximal proteinase K protection by protease coupled fluorescence polarization assay; parameters: species or system Homo sapiens
Homo sapiens = species: Homo sapiens; test: Stabilization of unlabeled amyloidogenic full length immunoglobulin light chain dimer (unknown origin) assessed as fold proteinase K protection at 10 uM by size-exclusion chromatography

| Compound | EC50 [1] | EC50 [2] | fold change (FC) (Homo sapiens) |
| --- | --- | --- | --- |
| CCN(CC)c1ccc2c(C)c(CCNC(=O)NCc3cccnc3)c(=O)oc2c1 | 462 nM | 810 nM | 0.66 |
| CCN(CC)c1ccc2c(C)c(CCNC(=O)NCCc3cccnc3)c(=O)oc2c1 | 1040 nM | 2050 nM | 0.5 |
| CCN(CC)c1ccc2c(C)c(CC(=O)NCCc3ccccc3)c(=O)oc2c1 | 1830 nM | 853 nM | 0.28 |
| CCN(CC)c1ccc2c(C)c(CCNC(=O)CCc3ccccc3)c(=O)oc2c1 | 490 nM | 513 nM | 0.17 |
| CCN(CC)c1ccc2c(C)c(CCNC(=O)NCc3ccccc3)c(=O)oc2c1 | 348 nM | 381 nM | 0.69 |
| CCN(CC)c1ccc2c(C)c(CC(=O)NCCN(C)C)c(=O)oc2c1 | 1750 nM | 2660 nM | 0.39 |
| CCN(CC)c1ccc2c(C)c(CCNC(=O)CCc3cccnc3)c(=O)oc2c1 | 1180 nM | 1610 nM | 0.55 |
| CCN(CC)c1ccc2c(C)c(CCNC(=O)NCc3ccc4ccccc4c3)c(=O)oc2c1 | 111 nM | 27.4 nM | 0.66 |
| CCN(CC)c1ccc2c(C)cc(=O)oc2c1 | – | – | 0.28 |
| CCN(CC)c1ccc2c(C)c(CCNC(=O)NCc3cncc4ccccc34)c(=O)oc2c1 | 233 nM | 377 nM | 0.74 |
| CCN(CC)c1ccc2c(C)c(CCC(=O)NCCc3cccnc3)c(=O)oc2c1 | 634 nM | 2110 nM | 0.61 |
| CCN(CC)c1ccc2c(C)c(CCOC(=O)NCc3cccc(-c4c[nH]cn4)c3)c(=O)oc2c1 | – | – | 0.91 |
| CCN(CC)c1ccc2c(C)c(CCNC(=O)NCc3cccc(-c4c[nH]cn4)c3)c(=O)oc2c1 | 140 nM | 74.1 nM | 0.81 |
| CCN(CC)c1ccc2c(C)c(CCC(=O)NCCN(C)C)c(=O)oc2c1 | 6800 nM | > 10000 nM | 0.13 |
